Results as given in ChEMBL document CHEMBL5137092, “Nostosin G and Spiroidesin B from the Cyanobacterium Dolichospermum sp. NIES-1697” (J Nat Prod, 2022).

Molecular target: Trypsin (Homo sapiens, UniProt P07477+P07478+P35030)
Test: Inhibition of trypsin (unknown origin) using Nalpha-benzoyl-D/L-arginine-4-nitroanilide hydrochloride as substrate preincubated for 5 mins followed by substrate addition and measured upto 30 mins by absorbance based assay
Type: protein assay

Structure (SMILES) | IC50 [nM]
CC(=O)N[C@@H](CC(C)C)C(=O)N[C@@H](CC(C)C)C(=O)N[C@H](C=O)CCCNC(=N)N [LEUPEPTIN] | 600
N=C(N)NCCC[C@@H](C=O)NC(=O)[C@H](CCc1ccc(O)cc1)NC(=O)[C@H](O)Cc1ccc(O)cc1 | 100
N=C(N)NCCC[C@@H](CO)NC(=O)[C@H](CCc1ccc(O)cc1)NC(=O)[C@H](O)Cc1ccc(O)cc1 | > 200000
